Test results reported in patent US20230285397A1, “EGFR INHIBITOR” (TAIHO PHARMACEUTICAL CO., LTD., priority 2020, published 2023).

How the values were obtained:
[1] = molecular target: T1, EGFR [D770_N771insNPG] (Homo sapiens, UniProt P00533, INS772GNP); experiment: Phosphorylation activity inhibitory effect (in vitro), kinase assay at Carna Biosciences; format: biochemical; conditions: ATP near Km
T1 construct: fused on or other part: Probably an N-terminal GST tag (Carna product)
Experimental: The measurement of the in vitro inhibitory activity of a compound against wild-type and mutant EGFR was outsourced to Carna Biosciences, Inc. (Kinase Profiling Book, https://www.carnabio.com/japanese/product/search.cgi?mode=profiling).
Specifically, first, the compound of the present invention was diluted stepwise with dimethyl sulfoxide (DMSO). […] To the reaction solution, Termination Buffer was added, so as to terminate the kinase reaction. Finally, using LabChip™ EZ Reader II (PerkinElmer), an unphosphorylated substrate peptide (S) and a phosphorylated peptide (P) were separated and detected according to microchannel capillary electrophoresis.

[2] = system: H1975-EGFRinsSVD cell line; experiment: Antitumor effect confirmation test (in vivo) on subcutaneous transplantation models; design: species or system nude mouse (BALB/cAJcl-nu/nu); conditions: Examples 2, 11 and 12 orally at 25, 25 and 50 mg/kg/day, Days 1-14; Dunnett test P<0.001
Experimental: When the tumor volumes of nude mice having tumor engraftment became on the order of 100 to 200 mm^3, the mice were assigned to groups each involving 6 animals by random stratification such that the average tumor volume was equal among the groups.
The test compound used was the compounds of Examples 2, 11, and 12, and a 0.5% HPMC aqueous solution was used as a control. The compounds of Examples 2, 11 and 12 were orally administered at doses of 25 mg/kg/day, 25 mg/kg/day and 50 mg/kg/day, respectively.
Each test compound or the control was orally administered every day for 14 days (Days 1-14) from the day following the grouping.
To compare the transition of tumor growth over time by the administration of each test compound, a tumor volume (which is also referred to as “TV” below) was measured at a frequency of twice a week over time. […] A body weight change percentage is also referred to as “BWC” below.
BWCn(%)=((body weight on n^th day)−(body weight on grouping day)]/[(body weight on grouping day)×100

[3] = Evaluation of oral absorbability; format: in vivo; conditions: BALB/cA mice, 50 mg/kg/day
Experimental: The compound of the present invention was suspended or dissolved in 0.5% HPMC aqueous solution and 0.1 N hydrochloric acid, and the obtained suspension or solution was orally administered to BALB/cA mice (CLEA Japan, Inc.) at a dose of 50 mg/kg/day. At 0.5, 1, 2, 4 and 6 hours after completion of the oral administration, blood was collected from the facial vein over time, so as to obtain plasma. The concentration of the compound in the obtained plasma was measured by LC-MS/MS, and the oral absorbability of the present compound was evaluated.

[4] = Evaluation of brain penetration properties; format: in vivo; conditions: BALB/cA mice, oral, 50 mg/kg/day, 0.5 hours
Experimental: The compound of the present invention was suspended or dissolved in 0.5% HPMC aqueous solution and 0.1 N hydrochloric acid, and the obtained suspension or solution was orally administered to BALB/cA mice (CLEA Japan, Inc.) at a dose of 50 mg/kg/day. At 0.5 hours after completion of the oral administration, blood was collected from the facial vein, and whole brain was then excised, so as to obtain plasma and brain samples. Water was added to the obtained brain sample in 3 times the volume of the brain sample, and the resultant was then homogenized using an ultrasonic homogenizer, so as to obtain a brain homogenate. The concentration of the compound in the obtained plasma and brain homogenate was measured by LC-MS/MS, and the brain penetration properties of the present compound were evaluated from the brain/plasma concentration of the compound.

T1 sequence (P00533 with tags, fused parts or gaps INS772GNP): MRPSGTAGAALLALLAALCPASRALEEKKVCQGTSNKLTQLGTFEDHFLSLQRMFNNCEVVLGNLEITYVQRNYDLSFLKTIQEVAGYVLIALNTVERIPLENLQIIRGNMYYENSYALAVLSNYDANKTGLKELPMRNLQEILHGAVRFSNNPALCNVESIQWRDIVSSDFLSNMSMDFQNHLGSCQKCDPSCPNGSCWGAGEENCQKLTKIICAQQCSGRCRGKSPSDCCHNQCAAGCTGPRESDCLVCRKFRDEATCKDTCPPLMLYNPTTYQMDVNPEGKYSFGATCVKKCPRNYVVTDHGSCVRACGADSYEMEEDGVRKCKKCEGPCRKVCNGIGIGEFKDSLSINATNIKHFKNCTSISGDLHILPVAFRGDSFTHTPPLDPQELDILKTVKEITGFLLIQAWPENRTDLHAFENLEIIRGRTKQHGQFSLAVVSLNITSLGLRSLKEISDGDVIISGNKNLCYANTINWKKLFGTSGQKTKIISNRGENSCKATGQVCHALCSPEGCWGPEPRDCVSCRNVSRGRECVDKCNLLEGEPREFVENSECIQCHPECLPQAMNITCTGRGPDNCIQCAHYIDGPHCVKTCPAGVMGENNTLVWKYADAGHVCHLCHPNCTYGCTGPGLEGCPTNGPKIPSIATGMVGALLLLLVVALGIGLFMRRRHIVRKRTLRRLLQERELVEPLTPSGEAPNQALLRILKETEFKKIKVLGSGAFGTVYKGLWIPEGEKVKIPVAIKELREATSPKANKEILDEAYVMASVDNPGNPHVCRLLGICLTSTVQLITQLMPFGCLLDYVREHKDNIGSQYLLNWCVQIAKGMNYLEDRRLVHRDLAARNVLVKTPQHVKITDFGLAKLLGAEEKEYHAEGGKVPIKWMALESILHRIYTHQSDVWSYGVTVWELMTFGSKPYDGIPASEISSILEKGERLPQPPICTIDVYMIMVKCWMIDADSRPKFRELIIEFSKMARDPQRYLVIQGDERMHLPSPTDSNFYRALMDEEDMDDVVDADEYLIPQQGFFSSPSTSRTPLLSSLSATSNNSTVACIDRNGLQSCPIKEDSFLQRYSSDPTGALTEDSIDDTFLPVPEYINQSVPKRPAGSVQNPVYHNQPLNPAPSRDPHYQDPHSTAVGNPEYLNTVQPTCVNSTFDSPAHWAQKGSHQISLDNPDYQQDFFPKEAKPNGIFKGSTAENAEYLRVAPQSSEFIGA

Compound	IC50 [1] [nM]	Antitumor effect: tumor volume (TV) on Day 15 compared with the control group [2]	Attenuation of oral absorbability relative to the compound of the present invention [3]	Attenuation of brain concentration relative to the compound of the present invention [4]
C=CC(=O)N1C[C@H](n2c(C#CC3CC3)c(C(=O)N[C@H](C)c3ccccc3)c3c(N)ncnc32)C[C@@H]1C [Example 11, 7-((3R,5S)-1-acryloyl-5-methylpyrrolidin-3-yl)-4-amino-6-(cyclopropylethynyl)-N—((R)-1-phenylethyl)-7H-pyrrolo[2,3-d]pyrimidine-5-carboxamide]	0.55	excellent antitumor effects	–	–
C=CC(=O)N1C[C@H](n2c(C#CC)c(C(=O)N[C@H](C)c3ccccc3)c3c(N)ncnc32)C[C@@H]1C [Example 2, 7-((3R,5S)-1-acryloyl-5-methylpyrrolidin-3-yl)-4-amino-N—((R)-1-phenylethyl)-6-(prop-1-yn-1-yl)-7H-pyrrolo[2,3-d]pyrimidine-5-carboxamide]	–	excellent antitumor effects	–	–
C=CC(=O)N1C[C@H](n2c(C#CC(C)(C)C)c(C(=O)N[C@H](C)c3ccccc3)c3c(N)ncnc32)C[C@@H]1C [Example 12, 7-((3R,5S)-1-acryloyl-5-methylpyrrolidin-3-yl)-4-amino-6-(3,3-dimethylbut-1-yn-1-yl)-N—((R)-1-phenylethyl)-7H-pyrrolo[2,3-d]pyrimidine-5-carboxamide]	–	excellent antitumor effects	–	–
C=CC(=O)N1C[C@H](n2nc(C(=O)Nc3ccc(CC(=O)N(C)C)c(C)c3C)c3c(N)ncnc32)C[C@@H]1C [Comparative Example 2, 1-((3R,5S)-1-acryloyl-5-methylpyrrolidin-3-yl)-4-amino-N-(4-(2-(dimethylamino)-2-oxoethyl)-2,3-dimethylphenyl)-1H-pyrazolo[3,4-d]pyrimidine-3-carboxamide]	–	–	more than 4 times	more than 80 times
